From the Deep4Chem optical property database
One block for each molecule: values may come before it.

Assay: photoluminescence quantum yield (fraction); solvent given as SMILES
[1] = in c1cc(-c2cccc(-n3c4ccccc4c4ccccc43)c2)cc(-n2c3ccccc3c3ccccc32)c1
[2] = in c1ccc2c(c1)c1ccccc1n2-c1ccc(-c2ccc(-n3c4ccccc4c4ccccc43)cc2)cc1

photoluminescence quantum yield (in C1COCCO1): 0.031
photoluminescence quantum yield (in CC#N): 0.131
photoluminescence quantum yield (in CCO): 0.097
photoluminescence quantum yield (in CS(C)=O): 0.123
photoluminescence quantum yield (in O): 0.037
photoluminescence quantum yield (in c1ccccc1): 0.075
Compound: CCOC(=O)c1ccc(NC(=O)COc2cc3c4c([nH]c3c(C)c2C)C(=O)CCC4)cc1

photoluminescence quantum yield (in CC#N): 0.27
photoluminescence quantum yield (in CCCCCC): 0.11
Compound: Cc1ccc(C)n1-c1ccc(N(C)C)cc1

photoluminescence quantum yield (in CC#N): 0.242
photoluminescence quantum yield (in CO): 0.166
photoluminescence quantum yield (in ClCCl): 0.685
photoluminescence quantum yield (in O): 0.041
Compound: CN(C)c1ccc2c3c(c(=O)oc2c1)C=c1cc2c(cc1O3)=[N+](CCC(=O)O)CCC2

photoluminescence quantum yield (in CC#N): 0.85
photoluminescence quantum yield (in CCO): 0.86
photoluminescence quantum yield (in O): 0.79
Compound: CC1=CC2=Nc3nc(C)[n+](C)cc3CN2C=C1

photoluminescence quantum yield (in ClCCl): 0.33
Compound: CC(C)(C)c1ccc(-c2cc(-c3ccc(-c4cc(-c5ccc(C(C)(C)C)cc5)c(C(=O)NCc5ccccc5)s4)s3)sc2C(=O)NCc2ccccc2)cc1

photoluminescence quantum yield (in ClC(Cl)Cl): 0
Compound: CC1=CC(C)=[N+]2C1=C(c1ccc(I)cc1)c1c(C)cc(C)n1[B-]21Oc2ccccc2O1

photoluminescence quantum yield (in ClCCl): 0.08
Compound: COC(=O)c1ccc(C(=O)NC(C)(C)C)c2c1ccc1c3ccccc3c3ccccc3c12

Compound: N#Cc1cc(C#N)c(-n2c3ccccc3c3c(-c4cccc5c4c4ccccc4n5-c4cc(-n5c6ccccc6c6ccccc65)c(C#N)cc4C#N)cccc32)cc1-n1c2ccccc2c2ccccc21
photoluminescence quantum yield (in O=P(c1ccccc1)(c1ccccc1)c1ccccc1Oc1ccccc1P(=O)(c1ccccc1)c1ccccc1): 0.61

Compound: Cn1cccc1-c1cc(C#N)ccc1C#N
photoluminescence quantum yield (in C1CCOC1): 0.139
photoluminescence quantum yield (in CC#N): 0.024
photoluminescence quantum yield (in CCCCCC): 0.378
photoluminescence quantum yield (in CCCCOCCCC): 0.281
photoluminescence quantum yield (in CCOCC): 0.206

Compound: CCCCCCC(CCCCCC)N1C(=O)c2cccc3c(-c4ccccc4)ccc(c23)C1=O
photoluminescence quantum yield (in CCCCCC): 0.076
photoluminescence quantum yield (in CCCCCCCCCCCCCC): 0.094
photoluminescence quantum yield (in CCCCCCCCCCCO): 0.76
photoluminescence quantum yield (in CCCCO): 0.95
photoluminescence quantum yield (in CN(C)C=O): 0.74
photoluminescence quantum yield (in Cc1ccccc1): 0.5
photoluminescence quantum yield (in ClC(Cl)Cl): 0.78

photoluminescence quantum yield (in CCCCCC): 0.94
Compound: CC1=[N+]2C(=C(c3ccccc3)c3c4c5ccccc5c5ccccc5c4c(C)n3[B-]2(F)F)c2c1c1ccccc1c1ccccc21

Compound: N#Cc1cc(-c2ccc(N3c4ccccc4Oc4ccccc43)cc2)c(-c2ccc(N3c4ccccc4Oc4ccccc43)cc2)cc1C#N
photoluminescence quantum yield (in Cc1ccccc1): 0.42
photoluminescence quantum yield [1]: 0.77

Compound: O=P1(c2ccccc2)c2cc(N3c4ccccc4Oc4ccccc43)ccc2-c2ccc(N3c4ccccc4Oc4ccccc43)cc21
photoluminescence quantum yield (in Cc1ccccc1): 0.47
photoluminescence quantum yield [2]: 0.41

photoluminescence quantum yield (in CCO): 0.21
photoluminescence quantum yield (in ClC(Cl)Cl): 0.51
photoluminescence quantum yield (in O): 0.01
Compound: CCN(CC)c1ccc2c(c1)oc(=O)c1c(-c3ccccc3C(=O)O)c3ccc(=[N+](CC)CC)cc-3oc12

photoluminescence quantum yield (in ClCCl): 0.56
Compound: C[Si]1(C)O[Si](C)(C)c2cc3c(-c4ccccc4F)c4cc(Cl)ccc4nc3cc21

photoluminescence quantum yield (in ClC(Cl)Cl): 0.275
Compound: Cc1ccc(C2=Cc3c4ccccc4c4ccccc4[n+]3[B-](F)(F)O2)cc1

photoluminescence quantum yield (in CS(C)=O): 0.44
Compound: COc1ccc(C2=[N+]3C(=Nc4c(C)cc(-c5ccc(OC)cc5)n4[B-]3(F)F)C(C)=C2)cc1

Compound: CN(C)c1ccc(-c2nc3c(c4c2-c2ccccc2CC4)-c2ccccc2CC3)cc1
photoluminescence quantum yield (in C1CCOC1): 0.396
photoluminescence quantum yield (in CC#N): 0.182
photoluminescence quantum yield (in CCCCCC): 0.05
photoluminescence quantum yield (in CCOC(C)=O): 0.164
photoluminescence quantum yield (in CO): 0.08
photoluminescence quantum yield (in CS(C)=O): 0.215
photoluminescence quantum yield (in Cc1ccccc1): 0.112
photoluminescence quantum yield (in ClCCl): 0.269

photoluminescence quantum yield (in ClCCl): 0.26
Compound: CCCCN(CCCC)c1ccc(C#Cc2cc(C#Cc3ccc(C#N)cc3)c(C#Cc3ccc(C#N)cc3)cc2C#Cc2ccc(N(CCCC)CCCC)cc2)cc1

photoluminescence quantum yield [1]: 0.96
Compound: c1ccc(-c2nc(-c3ccccc3)nc(-c3ccc(-c4ccc5c(c4)[Si](c4ccccc4)(c4ccccc4)c4cc(-c6ccc(-c7nc(-c8ccccc8)nc(-c8ccccc8)n7)cc6)ccc4N5c4ccccc4)cc3)n2)cc1

photoluminescence quantum yield (in CC#N): 0.14
photoluminescence quantum yield (in CCCCOCCCC): 0.19
photoluminescence quantum yield (in CO): 0.17
Compound: Nc1cc2ccc3cccc4ccc(c1)c2c34

Compound: CCCCC(CC)CN1C(=O)C2=C(c3ccc(-c4ccc(C5=C6C(C)=CC(C)=[N+]6[B-](F)(F)n6c(C)cc(C)c65)cc4)s3)N(CC(CC)CCCC)C(=O)C2=C1c1ccc(-c2ccc(C3=C4C(C)=CC(C)=[N+]4[B-](F)(F)n4c(C)cc(C)c43)cc2)s1 (centres undefined)
photoluminescence quantum yield (in Cc1ccccc1): 0.45

photoluminescence quantum yield (in C1CCOC1): 0.02
Compound: COc1cc2c(cc1-c1ccc(N(C)C)cc1)Cc1c3c(c4c(c1-2)-c1cc(OC)c(-c2ccc(N(C)C)cc2)cc1C4)C(=O)N(CCC(C)C)C3=O

photoluminescence quantum yield (in C1CCCCC1): 0.0024
photoluminescence quantum yield (in CC#N): 0.0001
photoluminescence quantum yield (in CCO): 0
Compound: COc1ccc2c(c1)C(=O)c1cc(OC)cc(OC)c1-2

Compound: Oc1ccccc1C1=NC2c3cccc4cccc(c34)C2N1c1ccccc1 (centres undefined)
photoluminescence quantum yield (in Cc1ccccc1): 0.009

photoluminescence quantum yield (in ClCCl): 0.52
Compound: C(=C\c1ccncn1)/c1ccc(-c2ccc(N(c3ccccc3)c3ccccc3)cc2)cc1

photoluminescence quantum yield (in C1CCOC1): 0.0023
Compound: C1=Cc2ccccc2C(=Cc2ccc(-c3cc(-c4ccc(C=C5c6ccccc6C=Cc6ccccc65)cc4)cc(-c4ccc(C=C5c6ccccc6C=Cc6ccccc65)cc4)c3)cc2)c2ccccc21

Compound: CC(C)(C)c1ccc2c(c1)c1cc(C(C)(C)C)ccc1n2-c1ccc(-c2ccc3c(c2)C(=O)c2ccc(-c4ccc(-n5c6ccc(C(C)(C)C)cc6c6cc(C(C)(C)C)ccc65)cc4)cc2C3=O)cc1
photoluminescence quantum yield (in Cc1ccccc1): 0.6
photoluminescence quantum yield [2]: 0.65

photoluminescence quantum yield (in ClC(Cl)Cl): 0.72
Compound: CCC1=C(CC)C(C)=[N+]2C1=Cc1c(C)c3cc4c(cc3n1[B-]2(F)F)=[N+]1C(=Cc2c(CC)c(CC)c(C)n2[B-]1(F)F)C=4C

photoluminescence quantum yield (in ClC(Cl)Cl): 0.57
Compound: F[B-]1(F)OC(c2cc3c4c(c2)CCCN4CCC3)=Cc2cccc[n+]21

photoluminescence quantum yield (in C1CCCCC1): 0.22
photoluminescence quantum yield (in CC#N): 0.08
Compound: C[Si](C)(C)[Si](C)(C)c1ccc2cc3ccccc3cc2c1

Compound: CC1=CC(C)=[N+]2C1=C(c1ccc(N(C)C)cc1)c1c(C)cc(/C=C/c3ccc(N(C)C)cc3)n1[B-]2(F)F
photoluminescence quantum yield (in CCOCC): 0.78

Compound: CC[N+]1(CC)CN2C(=N1)C(C(=O)O)=Cc1ccc(C)cc12
photoluminescence quantum yield (in O): 0.617

Compound: CC(C)[Si](C#Cc1c2ccc(C(C)(C)C)cc2c(C#C[Si](C(C)C)(C(C)C)C(C)C)c2ccc(C(C)(C)C)cc12)(C(C)C)C(C)C
photoluminescence quantum yield (in Cc1ccccc1): 0.92

photoluminescence quantum yield (in ClC(Cl)Cl): 0.98
Compound: CCCCN1C(=O)c2ccc3c4ccc5c6c(ccc(c7ccc(c2c37)C1=O)c64)C(=O)N(CCCC)C5=O

photoluminescence quantum yield (in CCOC(C)=O): 0.27
Compound: CC(C)(C)OC(=O)n1ccc2c3ccc4cccc5ccc(cc21)c3c54

photoluminescence quantum yield (in CO): 0.008
Compound: N#Cc1c(-n2nnc3ccc(Cl)cc32)n([C@H]2C[C@H](O)[C@@H](CO)O2)c2ncnc(N)c12

photoluminescence quantum yield (in C1CCCCC1): 0.7
Compound: Cc1cc(C)c(B2c3cc(C(C)(C)C)cc4c5ccccc5c5c6ccccc6c6cc(C(C)(C)C)cc2c6c5c34)c(C)c1

photoluminescence quantum yield (in CCC(C)C): 0.27
photoluminescence quantum yield (in ClCCl): 0.16
Compound: c1csc(-c2ccc(-c3ccc(-c4cccs4)s3)s2)c1

Compound: COc1ccc(-c2cc3c4c(c2)CCc2cc(-c5ccc(OC)cc5)cc(c2-4)CC3)cc1
photoluminescence quantum yield (in C1CCCCC1): 0.81
photoluminescence quantum yield (in C1CCOC1): 0.76
photoluminescence quantum yield (in CC#N): 0.6
photoluminescence quantum yield (in CCCCCC): 0.92
photoluminescence quantum yield (in CCO): 0.53
photoluminescence quantum yield (in CN(C)C=O): 0.55
photoluminescence quantum yield (in CO): 0.45
photoluminescence quantum yield (in Cc1ccccc1): 1
photoluminescence quantum yield (in ClC(Cl)Cl): 0.39
photoluminescence quantum yield (in ClCCl): 1

photoluminescence quantum yield (in ClC(Cl)Cl): 0.156
Compound: CC[Si](C)(C)c1cc2ccc3cccc4ccc(c1C(=O)NC(C)(C)C)c2c34

Compound: CN(C)c1ccc(-c2c(/C=C3/C=Cc4ccccc4N3C)c(=O)c2=O)cc1
photoluminescence quantum yield (in C1CCCCC1): 0.0301
photoluminescence quantum yield (in Cc1ccccc1): 0.0256
photoluminescence quantum yield (in ClCCl): 0.001

photoluminescence quantum yield (in ClCCl): 0.22
Compound: O=C1c2ccccc2-c2nc3c(F)c(F)c(F)c(F)c3n21

photoluminescence quantum yield (in ClCCl): 0.05
Compound: COc1ccc(C#Cc2c3cc4ccccc4cc3c(C#C[Si](C(C)C)(C(C)C)C(C)C)c3cc4ccccc4cc23)cc1

Compound: C=CC1CN2CCC1CC2[C@@H](OCc1ccccc1)c1ccnc2ccc(O)cc12 (some centres undefined)
photoluminescence quantum yield (in C1CCOC1): 0.12
photoluminescence quantum yield (in CC#N): 0.016
photoluminescence quantum yield (in CCCC#N): 0.021
photoluminescence quantum yield (in Cc1ccccc1): 0.06
photoluminescence quantum yield (in ClCCl): 0.035

Compound: COC(=O)C1=NNC(C(=O)OC)=C2c3ccccc3C(=O)c3ccccc3C12 (centres undefined)
photoluminescence quantum yield (in CC#N): 0.32

photoluminescence quantum yield (in ClCCl): 0.92
Compound: COc1ccc(C#Cc2c3cc4cc(C)sc4cc3c(C#Cc3ccc(OC)cc3)c3cc4cc(C)sc4cc23)cc1

Compound: CCn1c2ccccc2c2cc(C#Cc3cc(C#Cc4ccc5c(c4)c4ccccc4n5CC)nc(N4CCCCC4)n3)ccc21
photoluminescence quantum yield (in C1CCOC1): 0.21
photoluminescence quantum yield (in CCOC(C)=O): 0.17
photoluminescence quantum yield (in CN(C)C=O): 0.15
photoluminescence quantum yield (in Cc1ccccc1): 0.21
photoluminescence quantum yield (in ClCCl): 0.2

photoluminescence quantum yield (in CCOC(C)=O): 0.6
Compound: CCn1ncc2c3c(C#N)c4c5ccccc5n(CC)c4nc3ccc21

photoluminescence quantum yield (in CO): 0.78
Compound: CCN(C)c1ccc(C2=C3C(C)=CC(/C=C/c4ccc(OCC(=O)OC)cc4)=[N+]3[B-](F)(F)n3c(C)cc(C)c32)cc1

Compound: Cc1ccc(C)cc1
photoluminescence quantum yield (in C1CCCCC1): 0.39

photoluminescence quantum yield (in ClC(Cl)Cl): 0.015
Compound: O[Si](c1c2ccccc2cc2ccccc12)(c1c2ccccc2cc2ccccc12)c1c2ccccc2cc2ccccc12

Compound: CCCCCCc1ccc2c3c(ccc2c1)O[B-](F)(F)[N+](c1cc([N+]2=Cc4c(ccc5cc(CCCCCC)ccc45)O[B-]2(F)F)cc([N+]2=Cc4c(ccc5cc(CCCCCC)ccc45)O[B-]2(F)F)c1)=C3
photoluminescence quantum yield (in C1CCOC1): 0.26
photoluminescence quantum yield (in CC#N): 0.18
photoluminescence quantum yield (in Cc1ccccc1): 0.48
photoluminescence quantum yield (in ClCCl): 0.44

Compound: CCn1c2ccccc2c2cc(-c3cc(-c4ccc5c(c4)c4ccccc4n5CC)nc(-c4ccc(OC)cc4)n3)ccc21
photoluminescence quantum yield (in C1CCOC1): 0.45
photoluminescence quantum yield (in CCOC(C)=O): 0.56
photoluminescence quantum yield (in CN(C)C=O): 0.68
photoluminescence quantum yield (in Cc1ccccc1): 0.54
photoluminescence quantum yield (in ClCCl): 0.42
